Measured values taken from ChEMBL document CHEMBL5661943, “ASAP - In vitro antiviral effect” (2024).
pEC50: −log10 of the molar value. Several values for one entry are separate records, joined by “and”; a condition that tells them apart may be missing. Identical values can stand only once.

Experiments:
dengue virus type 2 [1] = assay: (§1) Functional immunofluorescence assay to measure dose dependent changes in antiviral-drug inhibitory efficacy against Dengue virus type 2 Thailand/16681/84 in Vero E6/TMPRSS2 cells. Cells are treated with antiviral candidates that are serially diluted, following infection, cells are fixed. EC50 is reported via analysis of immunofluorescence staining. The assay has been performed by Icahn School of Medicine at Mount Sinai.; assay type: organism-based, Chlorocebus sabaeus
Zika virus [2] = assay: as §1, with “Zika” for “Dengue”, “PRVABC59” for “type 2 Thailand/16681/84”; assay type: organism-based, Chlorocebus sabaeus; details: for pEC50: VeroE6/TMPRSS2
dengue virus type 2 [3] = assay: Functional CPE-based assay to measure dose dependent changes in antiviral-drug inhibitory efficacy against Dengue virus type 2 New Guinea C in Huh7 cells. Cells are treated with antiviral candidates that are serially diluted. EC50 is reported via analysis of MTT/MTS assay as a readout of CPE. The assay has been performed by National Institute of Allergy and Infectious Diseases.; assay type: organism-based, Homo sapiens; details: Huh-7
dengue virus type 2 [4] = assay: as §1, with “cells (cotreated with P-gp inhibitor, Elacridar).” for “cells.”; assay type: organism-based, Chlorocebus sabaeus, VeroE6/TMPRSS2; details: for EC90: Baseline response 0 %, P-gp concentration 2 uM, P-gp inhibitor Elacidar
Zika virus [5] = assay: EC50 is reported via analysis of immunofluorescence staining. The assay has been performed by Icahn School of Medicine at Mount Sinai.; assay type: functional, organism-based, Chlorocebus sabaeus, VeroE6/TMPRSS2
Zika virus [6] = assay: (§2) Functional CPE-based assay to measure dose dependent changes in antiviral-drug inhibitory efficacy against Zika virus MR766 in Vero E6 miRFP670 cells. Cells are treated with antiviral candidates that are serially diluted. EC50 is reported via analysis of MTS assay as a readout of CPE. The assay has been performed by KU Leuven.; assay type: organism-based, Chlorocebus sabaeus, Vero C1008; details: Zika virus; for pEC50: Vero C1008
dengue virus type 2 [7] = assay: Functional assay to measure dose dependent changes in antiviral-drug inhibitory efficacy against Dengue virus type 2 New Guinea C in Vero E6 miRFP670 cells (cotreated with P-gp inhibitor, CP100356). Cells are treated with antiviral candidates that are serially diluted, following infection, cells are fixed. EC50 is reported via analysis of fluorescence intensity using high-content imager. The …; assay type: organism-based, Chlorocebus sabaeus, Vero C1008; details: for EC90: Baseline response 0 %, Maximum response 100 %, P-gp concentration 500 nM, P-gp inhibitor CP100356
Zika virus [8] = assay: as §2, with “cells (cotreated with P-gp inhibitor, CP100356).” for “cells.”; assay type: organism-based, Chlorocebus sabaeus, Vero C1008; details: Zika virus, Vero C1008

NCc1ccc(-c2ncc(OCC3CCNCC3)nc2-c2ccc(-c3ccoc3)cc2)cc1
pEC50 (dengue virus type 2 [1]; VeroE6/TMPRSS2): 4.79 | EC90 (dengue virus type 2 [1]; VeroE6/TMPRSS2, Baseline response -26.43 %, Hill slope -19.353, Maximum measured 64.866 %, Maximum response 59.51 %, Minimum measured 1.549 %, R squared 0.583): > 16.7 µM | pEC50 (Zika virus [2]): < 4.30 | EC90 (Zika virus [2]; VeroE6/TMPRSS2, Maximum measured 394.841 %, Minimum measured 61.013 %): > 50 µM | pEC50 (dengue virus type 2 [3]): < 5.26 | pEC50 (dengue virus type 2 [4]; Dengue virus, VeroE6/TMPRSS2): 6.00 | EC90 (dengue virus type 2 [4]; Dengue virus, VeroE6/TMPRSS2, Hill slope -0.497, Maximum measured 90.326 %, Maximum response 100 %, Minimum measured 29.879 %, R squared 0.819): > 16.7 µM | pEC50 (Zika virus [5]; Zika virus, VeroE6/TMPRSS2): 6.95 | EC90 (Zika virus [5]; Zika virus, VeroE6/TMPRSS2): 16.5 µM

CCCC[C@H](NC(C)=O)C(=O)N[C@H](C(=O)NCc1ccc(C(N)=O)cc1)c1ccc(OCc2ccccc2)cc1
pEC50 (dengue virus type 2 [3]): 5.28 | EC90 (dengue virus type 2 [4]; Hill slope -0.583, Maximum measured 72.286 %, Maximum response 50 %, Minimum measured 22.28 %, R squared 0.087): > 50 µM | EC90 (dengue virus type 2 [4]; Dengue virus, VeroE6/TMPRSS2, Hill slope -0.364, Maximum measured 95.574 %, Maximum response 100 %, Minimum measured 8.045 %, R squared 0.69): > 50 µM | pEC50 (Zika virus [5]; Zika virus, VeroE6/TMPRSS2): < 4.30 | EC90 (Zika virus [5]; Zika virus, VeroE6/TMPRSS2, Maximum measured 173.346 %, Minimum measured 74.645 %, P-gp concentration 2 uM, P-gp inhibitor Elacidar): > 50 µM | EC90 (Zika virus [5]; Zika virus, VeroE6/TMPRSS2, Baseline response 0 %, Hill slope 0.304, Maximum measured 106.185 %, Maximum response 100 %, Minimum measured 70.235 %, P-gp concentration 2 uM, R squared 0.184, P-gp inhibitor Elacidar): > 50 µM

O=C(Nc1ccc2c(c1)B(O)OC2)c1cccc(OCc2c(Cl)cccc2Cl)c1
pEC50 (dengue virus type 2 [1]; VeroE6/TMPRSS2): 6.81 | EC90 (dengue virus type 2 [1]; VeroE6/TMPRSS2): 0.735 µM | pEC50 (Zika virus [2]): 5.96 | EC90 (Zika virus [2]; VeroE6/TMPRSS2, Baseline response 0 %, Hill slope -0.477, Maximum measured 91.001 %, Maximum response 100 %, Minimum measured 4.308 %, R squared 0.689): > 16.7 µM | pEC50 (dengue virus type 2 [3]): < 5.72

CC1(C)Cc2sc(NC(=O)Cc3ccc(S(N)(=O)=O)cc3)c(C#N)c2CN1CC1CCCCC1
pEC50 (Zika virus [6]): < 4.30 | EC90 (Zika virus [6]; Vero C1008, Maximum measured -0.002 %, Minimum measured -8.758 %): > 50 µM | pEC50 (dengue virus type 2 [3]): > 8.00 | pEC50 (dengue virus type 2 [7]; Dengue virus, Vero C1008): > 6.41 | EC90 (dengue virus type 2 [7]; Dengue virus, Vero C1008, Hill slope -4.912, Maximum measured 6.91 %, Minimum measured 0.005 %, R squared 0.81): < 0.391 µM

O=C(O)c1cc(Oc2ccc(F)cc2)c(F)cc1NS(=O)(=O)c1ccc(Oc2ccccc2Cl)cc1
pEC50 (dengue virus type 2 [3]): < 4.70 | pEC50 (dengue virus type 2 [4]; Dengue virus, VeroE6/TMPRSS2): < 4.78 | EC90 (dengue virus type 2 [4]; Dengue virus, VeroE6/TMPRSS2, Hill slope -0.235, Maximum measured 89.319 %, Maximum response 100 %, Minimum measured 56.356 %, R squared 0.164): > 16.7 µM | EC90 (Zika virus [5]; Baseline response 0 %, Hill slope -0.477, Maximum measured 92.293 %, Maximum response 50 %, Minimum measured 32.859 %, P-gp concentration 2 uM, R squared 0.014, P-gp inhibitor Elacidar): > 16.7 µM | EC90 (Zika virus [5]; Zika virus, VeroE6/TMPRSS2, Baseline response 0 %, Hill slope -0.324, Maximum measured 79.955 %, Maximum response 100 %, Minimum measured 28.499 %, P-gp concentration 2 uM, R squared 0.691, P-gp inhibitor Elacidar): > 16.7 µM

c1cc(C2CCN(Cc3c[nH]c4ccccc34)CC2)c2ccncc2c1
pEC50 (dengue virus type 2 [1]; VeroE6/TMPRSS2): 6.47 | EC90 (dengue virus type 2 [1]; VeroE6/TMPRSS2, Baseline response 0 %, EC90 CI (lower) 0 uM, EC90 CI (upper) 0.803 uM, Hill slope -0.593, Maximum measured 141.896 %, Maximum response 100 %, Minimum measured 11.317 %, R squared 0.319): 13.6 µM | pEC50 (Zika virus [2]): 5.15 | EC90 (Zika virus [2]; VeroE6/TMPRSS2, Baseline response 0 %, Hill slope -0.669, Maximum measured 111.623 %, Maximum response 100 %, Minimum measured 18.809 %, R squared 0.805): > 50 µM | pEC50 (dengue virus type 2 [3]): 4.57 | EC90 (dengue virus type 2 [4]; EC90 CI (lower) 0 uM, EC90 CI (upper) 0.011 uM, Hill slope -0.624, Maximum measured 68.2 %, Maximum response 100 %, Minimum measured 5.474 %, R squared 0.683): 1.58 µM | EC90 (dengue virus type 2 [4]; EC90 CI (lower) 0 uM, EC90 CI (upper) […] uM, Hill slope -0.4, Maximum measured 23.467 %, Maximum response 30 %, Minimum measured 3.547 %, R squared 0.817): 16.1 µM | pEC50 (dengue virus type 2 [4]; veroe6/tmprss2): 7.33 and > 7.64 | pEC50 (dengue virus type 2 [7]; Dengue virus, Vero C1008): 5.57 | EC90 (dengue virus type 2 [7]; Dengue virus, Vero C1008, EC90 CI (lower) 0.253 uM, EC90 CI (upper) 1.159 uM, Hill slope -1.373, Maximum measured 83.881 %, Minimum measured 4.274 %, R squared 0.884): 13.3 µM | EC90 (Zika virus [5]; Baseline response 0 %, Hill slope -0.578, Maximum measured 88.327 %, Maximum response 100 %, Minimum measured 9.758 %, P-gp concentration 2 uM, R squared 0.671, P-gp inhibitor Elacidar): > 50 µM | EC90 (Zika virus [5]; Zika virus, VeroE6/TMPRSS2): 25.3 µM

O=C(NCC(F)(F)F)c1cc(Cl)c(F)cc1NS(=O)(=O)c1ccc(Oc2ccccc2Cl)cc1
pEC50 (Zika virus [6]): < 4.30 | EC90 (Zika virus [6]; Vero C1008, Maximum measured -0.734 %, Minimum measured -10.955 %): > 50 µM | pEC50 (dengue virus type 2 [3]): < 5.72 | pEC50 (dengue virus type 2 [7]; Dengue virus, Vero C1008): 5.42 | EC90 (dengue virus type 2 [7]; Dengue virus, Vero C1008, EC90 CI (lower) 2.885 uM, EC90 CI (upper) 3.374 uM, Hill slope -11.236, Maximum measured 107.639 %, Minimum measured 0.022 %, R squared 0.991): 4.61 µM

COc1cc(N[C@@H](C(=O)N2CCc3ccc(OC(F)(F)F)cc32)c2ccc(Cl)cc2)cc(OCCCC(=O)O)c1
pEC50 (Zika virus [6]): < 5.20 | EC90 (Zika virus [6]; Vero C1008, Baseline response 0 %, Hill slope 1.919, Maximum measured 39.533 %, Maximum response 100 %, Minimum measured 0.481 %, R squared 0.987): > 6.25 µM | EC90 (Zika virus [6]; Vero C1008, Baseline response 0 %, Hill slope 2.194, Maximum measured 37.889 %, Maximum response 100 %, Minimum measured -0.884 %, R squared 0.976): > 6.25 µM | EC90 (Zika virus [6]; Vero C1008, Baseline response 0 %, Hill slope 2.262, Maximum measured 0.1 %, Maximum response 100 %, Minimum measured -2.404 %, R squared 0.714): > 6.25 µM | pEC50 (dengue virus type 2 [3]): > 8.00 | pEC50 (Zika virus [8]): < 5.20 | EC90 (Zika virus [8]; Baseline response 0 %, Hill slope 1.255, Maximum measured 36.243 %, Maximum response 100 %, Minimum measured 3.426 %, P-gp concentration 500 nM, R squared 0.925, P-gp inhibitor CP100356): > 6.25 µM | EC90 (dengue virus type 2 [4]; Hill slope 0.035, Maximum measured 8.614 %, Maximum response 100 %, Minimum measured 2.814 %, R squared 0.022): < 0.023 µM | EC90 (dengue virus type 2 [4]; Hill slope -0.067, Maximum measured 2.038 %, Maximum response 100 %, Minimum measured 0.482 %, R squared 0.032): < 0.005 µM | EC90 (dengue virus type 2 [4]; Hill slope -0.192, Maximum measured 3.988 %, Maximum response 100 %, Minimum measured 0.35 %, R squared 0.503): < 0.005 µM | pEC50 (dengue virus type 2 [4]; veroe6/tmprss2): > 8.30 | EC90 (dengue virus type 2 [7]; EC90 CI (lower) 26.978 uM, EC90 CI (upper) 1103.75 uM, Hill slope 1.671, Maximum measured 3.58 %, Minimum measured 0.058 %, R squared 0.662): < 0.391 µM | EC90 (dengue virus type 2 [7]; Hill slope 0.149, Maximum measured 0.277 %, Minimum measured 0.08 %, R squared 0.031): < 0.391 µM | EC90 (dengue virus type 2 [7]; Hill slope 0.294, Maximum measured 5.954 %, Minimum measured 0.022 %, R squared 0.035): < 0.391 µM | pEC50 (dengue virus type 2 [7]; Dengue virus, Vero C1008): > 6.41 | EC90 (dengue virus type 2 [7]; Dengue virus, Vero C1008, Hill slope -0.103, Maximum measured 0.223 %, Minimum measured 0.035 %, R squared 0.026): < 0.391 µM | pEC50 (Zika virus [5]; Zika virus, VeroE6/TMPRSS2): < 5.00 | EC90 (Zika virus [5]; Zika virus, VeroE6/TMPRSS2, Maximum measured 96.7 %, Minimum measured 47.971 %, P-gp concentration 2 uM, P-gp inhibitor Elacidar): > 10 µM | EC90 (Zika virus [5]; Zika virus, VeroE6/TMPRSS2, Maximum measured 158.114 %, Minimum measured 73.503 %, P-gp concentration 2 uM, P-gp inhibitor Elacidar): > 10 µM | EC90 (Zika virus [5]; Zika virus, VeroE6/TMPRSS2, Baseline response 0 %, Hill slope -19.172, Maximum measured 90.933 %, Maximum response 60 %, Minimum measured 7.507 %, P-gp concentration 2 uM, R squared 0.342, P-gp inhibitor Elacidar): > 16.7 µM | pEC50 (Zika virus [5]; veroe6/tmprss2): 4.82
